Data on 24 compounds can be found in PubChem BioAssay AID812 (SRMLSC, 2007).

Activity calls are given as the source filed them. How the calls were made is not given here.

As a reminder, the EC50 is the midpoint of the concentration-response curve.

The assay concerns Saccharomyces cerevisiae lifespan extension, no nicotinamide. Briefly: yeast lifespan extension without nicotinamide, confirmation, yeast lifespan extension project, S. cerevisiae (AID 812).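 Further: growth read as optical density after 42 hours of incubation at 30C.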
Turning to `Cc1cccc(N2C(=O)C(Oc3ccc(Cl)cc3Cl)C2C=O)c1C` (centres undefined), the EC50 was > 40 µM (inactive). On to `COc1cc(Br)cc(-c2nc3c(c(=O)[nH]c(=O)n3Cc3ccccc3)n2C)c1O`, for which the EC50 was > 40 µM (inactive). Consider `COCCCNC(CC(=O)Nc1ccc(OC)cc1OC)C(=O)O` (centres undefined), for which the EC50 is > 40 µM (inactive).

Turning to `COC(=O)C1=C(C(=O)OC)SC(=C2C(=S)C(C)(C)N(C(=O)C(C)C)c3ccccc32)S1`, the EC50 is > 40 µM (inactive).

As for `CCCCCC(=O)N1CCN(CCN=CC2=C(O)CC(c3ccc(OC)c(OC)c3)CC2=O)CC1` (centres undefined), the EC50 is > 40 µM (inactive). As to `O=C(/C(=C/c1ccccc1)n1cncn1)c1ccc(Cl)cc1Cl`, the EC50 was > 40 µM (inactive). As to `c1ccc(-c2cc(N3CCOCC3)nc3ccccc23)cc1`, the EC50 is > 40 µM (inactive). For the compound `O=C1ON=C(c2ccccc2)/C1=C/c1ccc(-c2ccccc2[N+](=O)[O-])o1`, the EC50 was > 40 µM (inactive). As to `Cc1ccc2[nH]c3c(c2c1)CC/C(=C/c1ccccc1)C3=O`, the EC50 is > 40 µM (inactive). The value for `C/C(=N\NC(=O)c1ccccc1O)C1C(=O)c2ccccc2C1=O` was > 40 µM (inactive); that for `CCCCCCN1CC(C(=O)OCC)C(=O)C1=O` (centres undefined) was > 40 µM (inactive). In the case of `CN=C(SCc1cc2c(cc1Cl)OCO2)c1c(O)n(C)c(=O)n(C)c1=O`, the EC50 is > 40 µM (inactive). Regarding `COc1ccc(/C(O)=C/C(=O)C(=O)Nc2c(C)n(C)n(-c3ccccc3)c2=O)cc1`, the EC50 was > 40 µM (inactive).

For the compound `CC(C)(C)C(=O)/C(=C/c1cccc([N+](=O)[O-])c1)n1cncn1`, the EC50 was > 40 µM (inactive). The value for `O=C1NCC2=C1C(c1ccc(Br)cc1)Nc1ccccc1N2` (centres undefined) was > 40 µM (inactive). Turning to `CC(=C1C(=O)c2ccccc2C1=O)N1CCN(C/C=C/c2ccccc2)CC1`, the EC50 is > 40 µM (inactive). Turning to `Cc1ccc(C(=O)/C=C\C(=O)c2ccc(C)cc2)cc1`, the EC50 was > 40 µM (inactive). `CC1(C)CC(=O)c2sc(NS(C)(=O)=O)nc2C1`: the EC50 was > 40 µM (inactive). On to `C=CCN(CC=C)S(=O)(=O)c1ccc2nc(NC(=O)C(C)C)sc2c1`, for which the EC50 is > 40 µM (inactive). In the case of `COc1ccc(/C=C(\C#N)C(=O)N2CCOCC2)cc1Br`, the EC50 was > 40 µM (inactive). The value for `O=Cc1ccccc1OS(=O)(=O)c1ccccc1` was > 40 µM (inactive). As to `C=CCn1c(O)c(C(CC)=NCCN2CCOCC2)c(=O)[nH]c1=O`, the EC50 was > 40 µM (inactive). With `Oc1ccc2ccccc2c1C=Nc1ccc(N2CCOCC2)cc1`, the EC50 is > 40 µM (inactive). On to `Cc1ccc2nc(-c3ccc(NC(=O)CSc4ccccc4)cc3)[nH]c2c1`, for which the EC50 is > 40 µM (inactive).
